# What was measured:
# [1] = system: P. aeruginosa biofilm on urinary tract catheters; assay: catheter associated urinary tract infection model in mice; format: in vivo
# Procedure: Silicone catheters (5 mm long, 0.64 mm OD×0.3 mm ID) incubated with P. aeruginosa cultures (OD 1) for 22 hours to allow bacterial adhesion and subsequent coating. Mice then had the catheters inserted in the bladder and biofilm developed on the catheters for 24 hours. […] At 48 hours post-insertion the mice were euthanized, and the bacterial contents as CFU per implant were determined. Two experiments were pooled, and the median CFU per implant for the placebo group was set to 100. Horizontal lines indicate median CFU for each group. Each symbol represents a mouse. IP administered doses: H6 P1: 2×13 mg/Kg BW, CIP: 2×1 mg/Kg BW.
# Silicone catheters (5 mm long, 0.64 mm OD×0.3 mm ID) incubated with P. aeruginosa cultures (OD 1) for 22 hours to allow bacterial adhesion and subsequent coating. Mice then had the catheters inserted in the bladder and biofilm developed on the catheters for 24 hours. […] At 48 hours post-insertion the mice were euthanized, and the bacterial contents as CFU per implant were determined. The median CFU per catheter for the control groups were set to 100. The median CFU per catheter for the placebo groups were 3×10^5 and 7×10^4. Horizontal lines indicate median CFU for each group. Each symbol represents one mouse. Orally administered doses: 2×13 mg/Kg BW, 2×3.3 mg/Kg BW. […]
# Acinetobacter baumanii = assay: biofilm formation / dispersal, host range; format: cell-based; conditions: data not shown
# Description: To determine the host range of H6-335-P1, the inventors conducted a Blast search for analogs of the P. aeruginosa BifA phosphodiesterase protein encoded by gene PA4367 (bifA).
smiles,measurement,setting,value
"N=C1NN=C(N)/C1=N/Nc1ccccc1F [H6-335-P1, 4-[(2-fluorophenyl) hydrazinylidene]pyrazole-3,5-diamine]","number of bacteria on the catheters, intraperitoneal administration","[1]; given as H6-335-P1:HCl 2×13 mg/Kg BW IP, with or without ciprofloxacin, FIG. 10A",reduced the number of bacteria on the catheters
same,"biofilm mass on the catheters, oral administration","[1]; given as H6-335-P1:HCl in Nutella, as low as […] (3.3 mg/Kg BW), FIG. 10B",significantly reduces the biofilm mass on the catheters
same,biofilm formation of Acinetobacter baumanii,Acinetobacter baumanii,failed to reduce biofilm formation
